# Read-outs that look alike come from different tables or passages of the source.
# How the values were obtained:
# mice [1] = conditions: oral (species not given; mice); cited from earlier work
# mice [2] = assay: NOAEL, oral, mice
# hTRPA1 = hTRPA1 (Homo sapiens, UniProt O75762); conditions: cited from earlier work; for inhibition of hTRPA1 activation by menthol and AITC: compound at 1 mM, menthol 1 mM, AITC 10 uM
# [3] = test system: primary human bronchial epithelial cells; conditions: pretreatment; cited from earlier work
# guinea pigs [4] = conditions: cited from earlier work
# TRAPA1 = TRAPA1 (Homo sapiens, UniProt O75762); conditions: read-out: IC50, TRPA1 antagonist; cited from earlier work
# Chain of TRAPA1 (O75762 whole entry): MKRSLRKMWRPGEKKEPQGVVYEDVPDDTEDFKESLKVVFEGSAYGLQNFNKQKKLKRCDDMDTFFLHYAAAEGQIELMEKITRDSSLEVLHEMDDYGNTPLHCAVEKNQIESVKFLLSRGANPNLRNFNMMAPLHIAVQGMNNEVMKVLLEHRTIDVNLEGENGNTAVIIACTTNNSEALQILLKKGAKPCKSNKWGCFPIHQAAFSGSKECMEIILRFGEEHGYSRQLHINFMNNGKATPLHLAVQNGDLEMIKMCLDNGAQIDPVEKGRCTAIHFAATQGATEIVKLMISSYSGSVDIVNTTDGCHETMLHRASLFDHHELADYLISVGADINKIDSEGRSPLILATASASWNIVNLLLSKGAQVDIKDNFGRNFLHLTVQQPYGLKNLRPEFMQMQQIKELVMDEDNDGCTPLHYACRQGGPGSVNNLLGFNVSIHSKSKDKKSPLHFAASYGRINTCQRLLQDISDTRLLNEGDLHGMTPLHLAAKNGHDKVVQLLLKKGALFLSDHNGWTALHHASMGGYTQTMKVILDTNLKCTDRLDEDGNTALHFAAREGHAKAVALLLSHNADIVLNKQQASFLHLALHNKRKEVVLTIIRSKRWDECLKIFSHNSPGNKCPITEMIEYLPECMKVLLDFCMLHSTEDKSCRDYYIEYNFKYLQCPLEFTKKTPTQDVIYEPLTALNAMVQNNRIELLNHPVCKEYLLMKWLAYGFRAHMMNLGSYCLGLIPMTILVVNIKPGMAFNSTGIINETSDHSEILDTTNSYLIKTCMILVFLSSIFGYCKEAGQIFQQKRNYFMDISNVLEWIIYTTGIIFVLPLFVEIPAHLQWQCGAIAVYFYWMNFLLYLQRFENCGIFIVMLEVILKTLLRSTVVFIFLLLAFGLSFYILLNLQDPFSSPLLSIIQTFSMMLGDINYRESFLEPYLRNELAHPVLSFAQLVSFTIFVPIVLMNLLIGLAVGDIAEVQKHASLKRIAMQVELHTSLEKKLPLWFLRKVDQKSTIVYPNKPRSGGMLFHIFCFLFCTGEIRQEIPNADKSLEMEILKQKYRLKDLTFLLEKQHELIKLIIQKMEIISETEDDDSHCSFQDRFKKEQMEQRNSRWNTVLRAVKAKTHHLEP
# TRPV1 = TRPV1 (Homo sapiens, UniProt Q8NER1); conditions: cited from earlier work
# Chain of TRPV1 (Q8NER1 whole entry, species assumed): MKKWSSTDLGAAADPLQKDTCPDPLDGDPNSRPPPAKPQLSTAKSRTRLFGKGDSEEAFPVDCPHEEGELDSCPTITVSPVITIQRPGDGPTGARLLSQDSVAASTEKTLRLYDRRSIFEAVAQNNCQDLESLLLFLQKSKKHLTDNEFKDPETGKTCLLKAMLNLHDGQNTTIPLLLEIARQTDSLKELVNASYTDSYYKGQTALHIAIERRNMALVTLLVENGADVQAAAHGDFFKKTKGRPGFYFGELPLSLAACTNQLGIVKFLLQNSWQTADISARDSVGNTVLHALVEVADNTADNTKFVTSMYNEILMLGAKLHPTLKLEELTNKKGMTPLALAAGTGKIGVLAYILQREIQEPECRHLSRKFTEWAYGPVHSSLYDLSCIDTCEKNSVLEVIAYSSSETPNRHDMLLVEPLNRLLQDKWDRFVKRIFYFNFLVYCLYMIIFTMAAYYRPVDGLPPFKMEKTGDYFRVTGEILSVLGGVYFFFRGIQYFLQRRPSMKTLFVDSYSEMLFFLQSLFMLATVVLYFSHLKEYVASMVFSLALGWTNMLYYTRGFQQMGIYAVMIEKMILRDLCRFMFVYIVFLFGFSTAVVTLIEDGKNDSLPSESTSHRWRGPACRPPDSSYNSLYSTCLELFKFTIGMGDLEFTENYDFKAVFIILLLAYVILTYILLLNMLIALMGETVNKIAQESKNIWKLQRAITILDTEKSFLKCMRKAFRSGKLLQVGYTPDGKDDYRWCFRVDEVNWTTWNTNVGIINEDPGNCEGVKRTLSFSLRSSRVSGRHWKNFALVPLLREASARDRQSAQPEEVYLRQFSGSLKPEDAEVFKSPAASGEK
# TRPV4 = TRPV4 (Homo sapiens, UniProt Q9HBA0); conditions: cited from earlier work
# Chain of TRPV4 (Q9HBA0 whole entry, species assumed): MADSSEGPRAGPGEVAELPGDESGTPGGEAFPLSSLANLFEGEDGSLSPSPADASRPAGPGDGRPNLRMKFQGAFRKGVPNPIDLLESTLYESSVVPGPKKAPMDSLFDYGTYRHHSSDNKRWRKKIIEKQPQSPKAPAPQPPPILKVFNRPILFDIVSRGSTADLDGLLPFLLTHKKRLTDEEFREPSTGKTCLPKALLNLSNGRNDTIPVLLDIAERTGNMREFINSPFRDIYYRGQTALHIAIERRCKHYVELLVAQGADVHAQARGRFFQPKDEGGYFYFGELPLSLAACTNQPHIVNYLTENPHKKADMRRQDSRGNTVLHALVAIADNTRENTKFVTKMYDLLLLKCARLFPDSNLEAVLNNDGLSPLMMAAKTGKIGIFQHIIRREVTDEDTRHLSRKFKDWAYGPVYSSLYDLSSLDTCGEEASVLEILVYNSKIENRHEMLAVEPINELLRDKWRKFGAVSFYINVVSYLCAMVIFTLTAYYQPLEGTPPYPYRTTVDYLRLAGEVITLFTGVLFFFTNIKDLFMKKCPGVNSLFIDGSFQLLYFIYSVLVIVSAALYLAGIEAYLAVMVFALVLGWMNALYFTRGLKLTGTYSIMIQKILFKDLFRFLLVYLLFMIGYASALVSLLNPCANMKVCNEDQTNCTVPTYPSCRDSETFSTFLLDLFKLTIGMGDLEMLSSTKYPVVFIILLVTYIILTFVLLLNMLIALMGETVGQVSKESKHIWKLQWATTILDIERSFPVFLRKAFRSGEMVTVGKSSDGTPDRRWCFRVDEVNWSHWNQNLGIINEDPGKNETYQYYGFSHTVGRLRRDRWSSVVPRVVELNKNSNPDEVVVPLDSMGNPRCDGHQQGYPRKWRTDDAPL
# HEK293 cell = conditions: cited from earlier work
# mice [5] = conditions: cited from earlier work
# rats [6] = assay: NOAEL, oral, rats; assay type: in vivo
# Description: The NOAEL value for Polysorbate 20 taken orally in rats is greater than 2,500 mg/kg (body weight), the highest dose tested.
# rats [7] = conditions: oral, rat, cited from earlier work
# [8] = cited from earlier work
# guinea pigs [9] = conditions: pretreatment; cited from earlier work
# human lung cancer A549 = conditions: in vitro and ex vivo; cited from earlier work
# leukemia K562 cells = conditions: in vitro and ex vivo; cited from earlier work
# COPD patients = conditions: orally 600 mg/day, cited from earlier work
# [10] = test system: CdCl2 treated human lung cells; conditions: 2.5 mM; 75 μM CdCl2; cited from earlier work
# H5N1 influenza A virus = conditions: 5 mM (816 mg/L) to 15 mM (2,448 mg/L), 24 hrs post-infection; cited from earlier work
# mice [11] = conditions: inhalation; cited from earlier work
# [12] = in vivo; cited from earlier work
# asthma patients = conditions: human, in vivo; cited from earlier work
# human MonoMac6 cells = conditions: cells pretreated; cited from earlier work
# [13] = 100 μM, in the presence of 2 mM N-acetyl cysteine; cited from earlier work
# rats [14] = conditions: 50 mg/kg orally each day; smoke 1 hr/day for 56 days; cited from earlier work
# [15] = test system: Human respiratory syncytial virus (hRSV); conditions: 14 days prior to challenge and 3 days post challenge; cited from earlier work
# mice [16] = conditions: intraperitoneal 5 and 10 mg/kg-d pretreatment; cited from earlier work
# CB2 receptor = CB2 receptor (Homo sapiens, UniProt P34972); conditions: unit inferred; read-out: Ki, CB2 receptor binding; cited from earlier work
# Chain of CB2 receptor (P34972 whole entry): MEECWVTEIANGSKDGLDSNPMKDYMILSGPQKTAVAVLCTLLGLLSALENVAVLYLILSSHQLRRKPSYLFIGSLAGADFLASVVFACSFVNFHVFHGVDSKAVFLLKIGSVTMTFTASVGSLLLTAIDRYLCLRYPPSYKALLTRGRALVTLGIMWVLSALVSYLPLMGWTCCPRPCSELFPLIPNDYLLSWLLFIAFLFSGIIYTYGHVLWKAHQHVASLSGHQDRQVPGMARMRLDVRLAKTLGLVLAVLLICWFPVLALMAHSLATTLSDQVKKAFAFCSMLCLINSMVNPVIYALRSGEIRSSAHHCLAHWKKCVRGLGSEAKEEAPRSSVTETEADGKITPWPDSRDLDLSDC
# [17] = Table A2 Preferred Base Viral Nebulizer Liquid, single 2 mL dose, 25 mL ELF, 100 percent retained
# [18] = Table A3 Preferred Viral Respiratory Challenged Nebulizer Liquid, single 2 mL dose, 25 mL ELF, 100 percent retained
# [19] = Table A4 Preferred Bacterial Pneumonia Nebulizer Liquid, single 2 mL dose, 25 mL ELF, 100 percent retained
# [20] = Table A6 Preferred Base Nebulizer Liquid with Amino Acids, single 2 mL dose, 25 mL ELF, 100 percent retained
# [21] = 2 mL/dose 4 times per day of Table A2 composition
# Chain of hTRPA1 (O75762 whole entry): as the sequence (O75762 whole entry) above
compound,measurement,setting,value
C/C1=C2/[N-][C@H]([C@H](CC(N)=O)[C@@]2(C)CCC(=O)NC[C@@H](C)OP(=O)([O-])O[C@H]2[C@@H](O)[C@@H](n3cnc4cc(C)c(C)cc43)O[C@@H]2CO)[C@]2(C)N=C(/C(C)=C3N=C(/C=C4N=C1[C@@H](CCC(N)=O)C\4(C)C)[C@@H](CCC(N)=O)[C@]\3(C)CC(N)=O)[C@@H](CCC(N)=O)[C@]2(C)CC(N)=O.[CH3-].[Co+3] [methylcobalamin],Concentration in Epithelial Lining Fluid,[17],0.5 µg/mL
same,Concentration in Epithelial Lining Fluid,[18],1.1 µg/mL
same,Concentration in Epithelial Lining Fluid,[19],1.1 µg/mL
same,Concentration in Epithelial Lining Fluid,[20],1.1 µg/mL
same,NOAEL,mice [1],500 mg/kg
same,factor NOAEL over daily inhaled dose,mice [2]; [21],"596,254 times"
same,NOAEL for a 62 kg adult human,mice [2]; extrapolated from mouse NOAEL,"31,000 mg per day"
NCCS(=O)(=O)O [Taurine],Concentration in Epithelial Lining Fluid,human,2670 µg/mL
CC12CCC(CC1=O)C2(C)C (stereo not drawn) [camphor],activation of hTRPA1,hTRPA1,did not activate
CC(C)c1ccc(NC(=O)Cn2cnc3c2c(=O)n(C)c(=O)n3C)cc1 [HC-030031],Ca^2+ influx induced by cigarette smoke extract,[3],similar
same,"tussive response induced by TRPA1 agonists (AITC, acrolein, crotonaldehyde, cinnamaldehyde)",guinea pigs [4],attenuated
COc1cc(O)cc(O)c1C(=O)/C=C/c1ccccc1 [cardamonin],IC50,TRAPA1,454 nM
same,effect on TRPV1,TRPV1,not affecting
same,effect on TRPV4,TRPV4,not affecting
same,HEK293 cell viability,HEK293 cell,did not significantly reduce
Cn1c(=O)c2c(CC(=O)Nc3nc(-c4ccc(F)c(C(F)(F)F)c4F)cs3)csc2n(C)c1=O [GRC 17536],citric acid induced tussive response,guinea pigs [4],inhibited
Oc1ccc(C=Cc2cc(O)cc(O)c2)cc1 [Resveratrol],cigarette smoke-induced lung inflammation,mice [5],decreased
CC1(C)C2CCC1(C)C(O)C2 (stereo not drawn) [borneol],activation of hTRPA1,hTRPA1,did not activate
same,inhibition of hTRPA1 activation by menthol and AITC,hTRPA1,completely inhibited
CCCCCCCCCCCC(=O)OCCOCCOCCOCCOCCOCCOCCOCCOCCOCCOCCOCCOCCOCCOCCOCCOCCOCCOCCOCCOCC(OCCOCCOCCOCCOCCOCCOCCOCCOCCOCCOCCOCCOCCOCCOCCOCCOCCOCCOCCOCCO)C1OCC(OCCOCCOCCOCCOCCOCCOCCOCCOCCOCCOCCOCCOCCOCCOCCOCCOCCOCCOCCOCCO)C1OCCOCCOCCOCCOCCOCCOCCOCCOCCOCCOCCOCCOCCOCCOCCOCCOCCOCCOCCOCCO (stereo not drawn) [Polysorbate 20],factor NOAEL over daily inhaled dose,rats [6]; [21],"2,980 times"
same,NOAEL for a 62 kg adult human,rats [6]; extrapolated from rat NOAEL,"155,000 mg per day"
same,Concentration in Epithelial Lining Fluid,[17],530 µg/mL
same,Concentration in Epithelial Lining Fluid,[18],1070 µg/mL
same,Concentration in Epithelial Lining Fluid,[19],1330 µg/mL
same,Concentration in Epithelial Lining Fluid,[20],1330 µg/mL
same,Concentration in Epithelial Lining Fluid,human,1870 µg/mL
same,NOAEL,rats [7],"2,500 mg/kg"
same,LD50,[8]; in vivo,"3,850 mg/kg"
CC1=CC(=O)C(C(C)C)=CC1=O [thymoquinone],bronchoalveolar lavage fluid IL-8,guinea pigs [9],significantly decreased
same,bronchoalveolar lavage fluid LTB4,guinea pigs [9],did not significantly change
"CCNC(=O)CC[C@H](N)C(=O)O [theanine, L-theanine]",Concentration in Epithelial Lining Fluid,human,2670 µg/mL
same,growth of A549 cells,human lung cancer A549,significantly suppressed
same,growth of K562 cells,leukemia K562 cells,significantly suppressed
CC(=O)N[C@@H](CS)C(=O)O [N-acetyl cysteine],estimated concentration in the epithelial lining fluid of the lungs,human,889 µg/mL
same,sputum eosinophil cationic protein concentrations,COPD patients; COPD patients,reduced
same,lung lavage glutathione levels,COPD patients,increased
same,superoxide production by alveolar macrophages,COPD patients,reduced
same,morphology and viability of CdCl2 treated human lung cells,[10],restored the morphology and viability
same,"H5N1-induced cytopathogenic effects, virus-induced apoptosis, and viral yields",H5N1 influenza A virus,reduces
same,Ca^2+ influx induced by cigarette smoke extract,[3],prevented
same,lung fibrosis induced by bleomycin,mice [11],inhibited
same,LD50,[8]; in vivo,5050 mg/kg
same,LD50,"[8]; oral, rat","5,050 mg/kg"
O=C1CC2CC[C@H]1C2 [norcamphor],activation of hTRPA1,hTRPA1,did not activate
"N[C@@H](CCC(=O)N[C@@H](CS)C(=O)NCC(=O)O)C(=O)O [glutathione, γ-L-glutamyl-L-cysteinyl-glycine]",estimated concentration in the epithelial lining fluid of the lungs,human,889 µg/mL
same,adverse effects of aerosol administration,[12],no adverse effects
same,period epithelial lung fluid glutathione remained elevated,[12],2 h
same,change from baseline FEV1,asthma patients,−19%
same,change from baseline total pulmonary resistance,asthma patients,+61%
same,LD50,[8]; in vivo,5000 mg/kg
same,LD50,"[8]; oral, mouse","5,000 mg/kg"
same,cigarette smoke extract-mediated IL-8 release,human MonoMac6 cells,significantly inhibited
epigallocatechin-3-gallate,increase of cellular uptake,[13],2.5 times
same,"cigarette smoke-induced oxidative stress and neutrophilic inflammation, airway mucus production and collagen deposition",rats [14],ameliorated
same,bronchoalveolar lavage fluid IL-8,guinea pigs [9],significantly reduced
same,bronchoalveolar lavage fluid LTB4,guinea pigs [9],significantly reduced
OC[C@@H](O)[C@H](O)[C@@H](O)CO [xylitol],lung virus titers versus phosphate-buffered saline controls,[15],significantly greater reductions
COc1ccc2cc3[n+](cc2c1OC)CCc1cc2c(cc1-3)OCO2 [berberine],cigarette smoke-induced airway inflammation and mucus production,mice [16],inhibited
"CCCCC/C=C\C/C=C\C/C=C\C/C=C\CCCC(=O)OC(CO)CO [Table 2-AG, 2-arachidonoyl-glycerol, reference compound]",Ki,CB2 receptor,650 nM
"CC1(C)[C@@H]2CC[C@@]1(C)[C@](C)(O)C2 [2-methylosoborneol, 2-methylisoborneol]",IC50,"hTRPA1; TRPA1 activated by 20 uM AITC, read-out: IC-50 concentration, inactivation of TRPA1 activation",120000 nM
same,activation of hTRPA1,hTRPA1,did not activate
same,inhibition of hTRPA1 activation by menthol and AITC,hTRPA1,completely inhibited
C=C1CC/C=C(\C)CC[C@@H]2[C@@H]1CC2(C)C [B-Caryophyllene],NOAEL,rats [7]; 90 d,>700 mg/kg
same,LD50,"[8]; oral, rat",">5,000 mg/kg"
CC12CCC(C1)C(C)(C)C2O (stereo not drawn) [fenchyl alcohol],activation of hTRPA1,hTRPA1,did not activate
same,inhibition of hTRPA1 activation by menthol and AITC,hTRPA1,completely inhibited
